Reference: patent US9675606B2, “2-amino-3-(imidazol-2-yl)-pyridin-4-one derivatives and their use as VEGF receptor kinase inhibitors” (SANOFI, priority 2011, dated 2017)

What was measured:
VEGFR-3 [1] = target: T1, VEGFR-3 (Homo sapiens, UniProt P35916); assay: Ex vivo assay: VEGFR-3 autophosphorylation in HEK cells incubated with plasma of mice dosed p.o.; parameters: species or system male Balb/c mice; details: HEK293, mouse; 6 h after single oral administration of 30 mg/kg to male Balb/c mice; transfected HEK cells incubated with plasma (10%); read-out: Ex vivo inhibition (%) At the time
T1 construct: expressed in transfected cells; host or cells: HEK293T cells, transient transfection with Fugene-6
Protocol: Protocol for administration of the products to the mice:
The products are prepared in a mortar with 0.5% Tween 80 and 0.6% methylcellulose qs final volume. The suspensions are administered by gavage (10 ml/kg) to male Balb/c mice 8 to 15 weeks old. Three hours or 6 hours after single oral administrations of 30 mg/kg, animals were anaesthetized with pentobarbital and blood samples (400 μL) were collected from cava vein and transferred into glass tubes containing lithium heparin. After centrifugation (1500-2000 g for 10 minutes), plasma samples were frozen at a temperature close to −20° C. until analysis.
In order to detect the ex vivo activity of the products in the plasmas, we have used the autophosphorylation assay in HEK cells described earlier. For this purpose, transfected cells were incubated with plasma (10%) instead of compounds. Results are expressed as percent of inhibition of VEGFR-3 autophosphorylation in comparison to untreated cells (maximum autophosphorylation) and to untransfected cells (background).
Results are expressed as a percentage of inhibition of VEGFR-3 auto-phosphorylation of in HEK cells, in presence of a plasma sample collected (at a time), after per os (p.o.) administration of compounds. In order to evaluate the increase of this activity for compounds of the invention, a comparison with compounds of the prior art (WO 2009/007535) and subjected to the same measurement is made in table 3.

VEGFR-3 [2] = target: T1, VEGFR-3; assay: Effect of compounds on VEGFR-3 auto-phosphorylation in HEK cells (ELISA); format: cell-based; details: autophosphorylation of VEGFR-3-Flag overexpressed in HEK293T cells, 1 h incubation with compound
Protocol: Effect of Compounds on VEGFR-3 Auto-Phosphorylation in HEK Cells
The effects of compounds in blocking VEGFR-3 autophosphorylation were quatified by ELISA after Overexpression of VEGFR-3 in HEK cells. HEK293T cells were maintained in MEM supplemented with 10% foetal calf serum (FCS) and glutamine. The day before transfection, […] were seeded on 48 wells plates and transfection was done using Fugene-6 (Roche, Basel). Fugene-6 (18 μL) was preincubated for 5 min with 282 μl of optimem. Then 3 μg DNA corresponding VFGR-3-Flag was added and left at room temperature during 10 min before distributing 200 μl on HEK cells. After 24 h, the medium was removed and replaced by a new one without serum and incubated for 1 h with different concentrations (ranging from 3 to 1000 nM) of each compound. After additional 30 min incubation with Orthovanadate (0.4 mM), cells were washed with cold PBS supplemented by orthovanadate and then lysed with 300 μl of RIPA buffer. Lysates were then centrifuged during 10 min at 10000 g. Supernatants (75 μl) were distributed in duplicate on 96 well plate precoated with the anti-Flag and left during 1 hour at room temperature. After 3 washes with TBS buffer containing 0.5% tween 20, the anti-phospho-tyrosine conjugated to the HRP was added and incubated for 1 hour at room temperature. Wells were then washed 3 times with TBS buffer containing tween 20 (0.5%) and MgCl2 (2 mM). The reaction was stopped with 50 μl of H2SO4 (2 N) and the signal was read at Envision at 485 and 530.
The concentration-response curves were analyzed with internal software Biost@t-SPEED v2.0 using the 4-parameter logistic model according to Ratkovsky and Reedy (Ratkovsky D A., Reedy T J. Choosing near-linear parameters in the four parameters logistic model radioligands and related assays. Biometrics 1986 September 42(3):575-82.)

T1 sequence (P35916 25-1363, species assumed): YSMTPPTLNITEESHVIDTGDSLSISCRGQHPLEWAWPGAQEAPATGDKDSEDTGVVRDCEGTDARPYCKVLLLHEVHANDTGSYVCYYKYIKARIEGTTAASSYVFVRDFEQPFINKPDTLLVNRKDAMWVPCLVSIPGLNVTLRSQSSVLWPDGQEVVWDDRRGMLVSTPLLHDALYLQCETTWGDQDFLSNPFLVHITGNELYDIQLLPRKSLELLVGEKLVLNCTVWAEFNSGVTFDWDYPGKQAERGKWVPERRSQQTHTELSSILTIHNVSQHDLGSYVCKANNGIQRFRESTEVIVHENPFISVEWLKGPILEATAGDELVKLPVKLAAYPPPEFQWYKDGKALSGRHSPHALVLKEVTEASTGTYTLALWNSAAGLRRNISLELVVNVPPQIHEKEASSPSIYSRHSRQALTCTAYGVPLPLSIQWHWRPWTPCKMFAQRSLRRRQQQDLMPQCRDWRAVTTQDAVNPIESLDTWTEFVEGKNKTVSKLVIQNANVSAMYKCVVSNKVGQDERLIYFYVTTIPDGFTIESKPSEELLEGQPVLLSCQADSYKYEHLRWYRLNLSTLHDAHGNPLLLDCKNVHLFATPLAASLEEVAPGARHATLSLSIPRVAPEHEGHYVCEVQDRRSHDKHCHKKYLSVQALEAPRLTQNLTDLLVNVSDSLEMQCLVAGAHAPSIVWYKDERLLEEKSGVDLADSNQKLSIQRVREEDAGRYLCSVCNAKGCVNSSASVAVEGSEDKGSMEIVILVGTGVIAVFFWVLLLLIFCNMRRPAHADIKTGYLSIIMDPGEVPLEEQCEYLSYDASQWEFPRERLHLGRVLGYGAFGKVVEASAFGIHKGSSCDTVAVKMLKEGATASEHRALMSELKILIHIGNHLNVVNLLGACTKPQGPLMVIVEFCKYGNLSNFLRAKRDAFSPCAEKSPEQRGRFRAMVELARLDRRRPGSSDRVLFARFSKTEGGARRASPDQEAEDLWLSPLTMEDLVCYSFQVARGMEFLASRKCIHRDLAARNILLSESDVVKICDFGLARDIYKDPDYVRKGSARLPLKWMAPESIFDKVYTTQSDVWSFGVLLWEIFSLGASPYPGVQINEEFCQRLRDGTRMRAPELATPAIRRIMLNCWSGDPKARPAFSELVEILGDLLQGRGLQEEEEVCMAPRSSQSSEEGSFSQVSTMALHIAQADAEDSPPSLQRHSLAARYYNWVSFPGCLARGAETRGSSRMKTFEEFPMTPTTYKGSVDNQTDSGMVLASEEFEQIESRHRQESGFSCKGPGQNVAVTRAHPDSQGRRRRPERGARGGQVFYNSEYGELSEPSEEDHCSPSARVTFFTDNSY

Compound	inhibition at 30 mg/kg (VEGFR-3 [1]) [%]	IC50 (VEGFR-3 [2]) [nM]
CCn1c(N)c(-c2nc(C)c[nH]2)c(=O)c2ccc(C#C[C@@](C)(O)COC)nc21 [Compound 5, 2-Amino-1-ethyl-7-[(3R)-3-hydroxy-4-methoxy-3-methylbut-1-yn-1-yl]-3-(4-methyl-1H-imidazol-2-yl)-1,8-naphthyridin-4(1H)-one]	86	45
CCn1c(N)c(-c2ncc[nH]2)c(=O)c2ccc(C#CC3(O)CCC3)nc21 [Compound 13, 2-Amino-1-ethyl-7-[(1-hydroxycyclobutyl)ethynyl]-3-(1H-imidazol-2-yl)-1,8-naphthyridin-4(1H)-one]	23	41
